Consider 17 compounds from patent US20110236822A1, “METHOD OF TREATING SEASONED DEVELOPER SOLUTION” (priority 2010, published 2011).

Read-outs that look alike come from different tables or passages of the source.

The test system of one data set is aquatic life. The conditions noted are these: from MSDS sheets; cited from earlier work.
A short description of data set [1]: Treatment of IR dye with oxidative and reducing reagents to degrade the dye (TABLE I). The data set is classed as physicochemical.
In another data set the test system is humans. The conditions noted are these: from MSDS sheets; cited from earlier work.
A short description of data set [2]: Treatment of seasoned developer solution with Chlorox bleach solution, residual dye by FTIR. The data set is classed as physicochemical. The conditions noted are these: Kodak 955 Developer seasoned, 15 ml bleach diluted to 6%, 2000 rpm. The procedure:
An imageable layer coating formulation was prepared with the components in TABLE II below in a solvent mixture of methyl ethyl ketone:water:isopropyl alcohol (70:20:10 weight ratio). The formulation was coated onto a sulfuric acid anodized aluminum substrate and dried in a conveyor oven at 100° C. for 1 minute to provide an imageable layer with a dry coating weight of 1.60 g/m^2. The resulting printing plate precursors were imaged at 110 mJ/cm^2 and 11 Watt using a Kodak 3244x platesetter. The imaged precursors (approx. 11 m^2) were manually developed in 1 liter of Kodak 955 Developer to produce seasoned developer solution (3).
Samples (each 50 ml) of seasoned developer solution (3) were diluted with 150 ml of water and treated with 15 ml of Chlorox® bleach solution diluted to 6% by drop wise addition while stirring at 2000 rpm. The stirring continued for another 15 minutes after the addition. The green color of the seasoned developer solution samples disappeared, forming pale yellow, slightly turbid solutions. […] The extract was concentrated about 50 times and analyzed by FTIR. […]
An imageable layer coating formulation was prepared using the components of TABLE II above except that the IR dye was S0507 from Few Chemicals GmbH. […] The extract was concentrated 50 times by evaporation under nitrogen flow and spotted onto a sodium chloride disk, dried, and analyzed by FTIR. […]

A short description of data set [3]: Treatment of IR dye 66e in methanol with Chlorox bleach solution (qualitative, titration, LC-MS). The format is physicochemical.
A short description of data set [4]: Treatment of seasoned developer solution with Chlorox bleach solution, residual dye by LC-MS. The format is physicochemical. The conditions noted are these: Kodak 1080 Developer seasoned, diluted, 8 ml bleach diluted to 6%, 6000 rpm. The procedure:
In this example, seasoned developer solutions containing IR dye 66e were treated with commercial Chlorox® bleach solution and the degradation products were examined by LC-MS. The seasoned developer solutions were prepared in the lab after development of imaged commercially available, negative-working printing plate precursors containing IR dye 66e with Kodak 1080 Developer under conditions that account for real-life situation at the end of the processor cycle when the seasoned developer solution is being changed. The following calculation of the coating concentration in the seasoned developer solution at the end of the processing cycle takes into account that a Mercury 1035 processor will have a cycle of 3150 m^2 plates/9 gal (34 liters) of developer solution that is the tank capacity. […]
To account for the lower limit, solution C was prepared by dissolving 1.1 m^2 of printing plate coating in 100 ml of developer solution. […] The precipitate (2) and the supernatant liquid (2) were analyzed by LC-MS for the IR dye 66e using the equipment and method described above in Comparative Example 3.
Precipitate (2) was extracted in acetonitrile:isopropanol at 2.5 mg/ml. […] This reference solution (standard) was analyzed to determine the sensitivity of the instrument. […]

The nature of data set [5]: Attempt to precipitate the anionic chromophore of IR Dye I as insoluble salts. The format is physicochemical. The conditions noted are these: IR Dye I 0.3% in methanol; 3% solution of compound in water.
Data set [6] is described as follows: Attempt to precipitate the cationic chromophore of IR dye 66e as insoluble salts with organic acids. The settings on record: IR dye 66e 0.3% in methanol; aqueous organic acid at 3% concentration. The data set is classed as physicochemical.
Setting [7] is: 0.3% IR dye 66e in methanol, 23° C.
The mark [8] stands for this setting: after titration with diluted bleach.

For `N.N.O=S(=O)(O)OOS(=O)(=O)O` [Ammonium persulfate], in the data set on aquatic life, the “toxicity to aquatic life” value is given as “toxic to aquatic life”. Also, the “Change Noticed” value in data set [1] (setting [7]) is “Dye bleached pink”.
For `O=[N+]([O-])[O-].O=[N+]([O-])[O-].O=[N+]([O-])[O-].O=[N+]([O-])[O-].O=[N+]([O-])[O-].O=[N+]([O-])[O-].[Ce+4].[NH4+].[NH4+]` [Ceric ammonium nitrate], the “Change Noticed” value in data set [1] is given as “Dye bleached pink”.
Still for that read-out and setting: then `O=C([O-])c1ccccc1.[Cu+]` [Cu(I) benzoate], with “Dye bleached pink”.
As for `[Cl][Fe]([Cl])[Cl]` [Ferric chloride], in the data set on aquatic life, the “toxicity to aquatic life” value was “toxic to aquatic life”. Besides, the “Change Noticed” value in data set [1] (setting [7]) was “Black”.
With `[Cl][Fe][Cl]` [Ferrous chloride], the “toxicity to aquatic life” value in the data set with aquatic life was “toxic to aquatic life”. Besides, in data set [1] (setting [7]), the “Change Noticed” value is given as “Black”.
Consider `OO` [Hydrogen peroxide], for which the “Change Noticed” value in data set [1] (0.3% IR dye 66e in methanol, NaOH, room temperature) is given as “Pink precipitate”; in data set [1] (0.3% IR dye 66e in methanol, Sulfuric acid, 1%, 23° C.), “Black”; in data set [1] (0.3% IR dye 66e in methanol, Sulfuric acid, 1%, Heat) it was “Dye bleached pink”. In addition, the “carcinogenic and mutagenic potential for humans” value in the data set with humans was “potential carcinogenic and mutagenic for humans”.
For `CC(=O)OCCN1/C(=C/C=C2\CCC(/C=C/C3=[N+](CCOC(C)=O)c4ccc5cc(S(=O)(=O)O)ccc5c4C3(C)C)=C2N(c2ccccc2)c2ccccc2)C(C)(C)c2c1ccc1cc(S(=O)(=O)[O-])ccc21` [IR Dye I], the “residual dye in extract of sediment (3) or supernatant liquid (3) by FTIR” value in data set [2] was “No residual IR Dye I was found”.
For `CN1/C(=C/C=C2\CCCC(/C=C/C3=[N+](C)c4ccccc4C3(C)C)=C2Sc2ccccc2)C(C)(C)c2ccccc21` [IR dye 66e], in data set [3] (0.3% in methanol, liberal amount of Chlorox bleach solution (3.6% sodium hypochlorite), room temperature, shaking), the “change of dye solution on bleach treatment” value was “color change from green to light yellow and a yellow precipitate was formed”. Moreover, the “change of dye solution, incomplete degradation” value in data set [3] (20 ml solution B titrated with 4.8 ml of 5% bleach (insufficient hypochlorite)) is “became reddish-brown”. Besides, in data set [3] (setting [8]), the “residual dye in filtrate (1) by LC-MS” value is “did not contain IR dye 66e” and the “residual dye in precipitate (1) by LC-MS” value is on record as “gave a signal for the IR dye 66e”. Moreover, the “original dye co-precipitated with its degradation products” value in data set [3] (estimated, precipitate (1)) was “about 1%”. Further, the “undiluted Chlorox bleach solution needed to bleach 1 mg of dye” value in data set [3] (titration, per 1 mg dye, magnetic stirrer) turned out to be 0.007463 mL. In addition, the “Chlorox bleach solution needed for degradation of 1 g of dye” value in data set [3] (titration, per 1 g dye) stood at 7.46 mL. Besides, the “residual dye in supernatant liquid (2) by LC-MS” value in data set [4] is “No trace of IR dye 66e was found”.
On to `O=C1CCC(=O)N1Br` [N-Bromo-succinimide], for which, in data set [1], the “Change Noticed” value is “Dye bleached pink”.
As for `O=S([O-])[O-].[Na+].[Na+]` [Na sulfite], the “Change Noticed” value in data set [1] was “Some bleaching,”.
With `[O-][Cl+3]([O-])([O-])O` [Perchloric acid], the “Change Noticed” value in data set [1] is reported as “Dye bleached pink”.
Still for that read-out and setting: in the case of `O=S(=O)([O-])OOS(=O)(=O)[O-].[K+].[K+]` [Potassium persulfate] it was “Brown”; in that of `O=S([O-])O.[Na+]` [Sodium hydrogen sulfite], “No reaction”.
For `O=S([O-])S(=O)(=O)[O-].[Na+].[Na+]` [Sodium metabisulfite], the “Change Noticed” value in data set [1] (0.3% IR dye 66e in methanol, Heat) is recorded as “No reaction”.
Regarding `CCCCCCCCCCCCCCCCCC[N+](C)(C)Cc1ccccc1.[Cl-]` [benzyl stearyl dimethyl ammonium chloride], the “precipitation of IR Dye I” value in data set [5] was “None of these compounds precipitated IR Dye I”.
Regarding `C[N+](C)(C)Cc1ccccc1.[Cl-]` [benzyl trimethyl ammonium chloride], in data set [5], the “precipitation of IR Dye I” value is reported as “None of these compounds precipitated IR Dye I”.
Regarding naphthalene sulfonic acid, in data set [6], the “precipitation of IR dye 66e” value is “None of these organic acids were useful to precipitate the IR dye 66e”.
